Earlier results as cited in US20050227989A1, “Polycyclic thiazoles as potassium ion channel modulators” (ICAgen, Inc., priority 2004, published 2005).

target: SK2 subtype channels (Rattus norvegicus, UniProt P70604); settings: patch clamp; cited from earlier work

| Compound | block of SK2 channel currents |
| --- | --- |
| NC(=O)N1c2ccccc2C=Cc2ccccc21 [carbamazepine] | block SK2 channel currents with micromolar affinity |
| CN(C)CCC=C1c2ccccc2CCc2ccccc21 [amitriptyline] | block SK2 channel currents with micromolar affinity |
| Nc1c2c(nc3ccccc13)CCCC2 [tacrine] | block SK2 channel currents with micromolar affinity |
